Where a name gives a salt, the structure may show the parent alone. Read-outs that look alike come from different tables or passages of the source.
Key:
[1] = test system: NCI-H292 lung cancer cells; assay: FDA drug screening, complete media vs cholesterol-free media without statin (TABLE 1); format: cell-based, human
[2] = test system: NCI-H292 lung cancer cells; assay: FDA drug screening, complete media vs cholesterol-free media with simvastatin (TABLE 2); format: cell-based, human
[3] = Complete minus Cholesterol-free, […]
[4] = NCI-H292 cells, cholesterol-free media without statin
[5] = complete media minus cholesterol-free media + simvastatin, […]
[6] = Complete minus Cholesterol-free, greater than 0 enhanced anti-cancer activity, about 0 neutral, below 0 antagonists
[7] = NCI-H292 cells in cholesterol-free media without statin
[8] = NCI-H292 cells in complete media
[9] = NCI-H292 cells, FDA library drug in cholesterol-free media with simvastatin 0.04 μM
[10] = NCI-H292 cells, FDA library drug in complete media
[11] = complete media vs cholesterol-free media + simvastatin (0.04 μM), >0 enhanced anti-cancer activity, about 0 neutral, <0 antagonist
[12] = Complete minus Cholesterol-free, greater than 0 enhanced anti-cancer activity, about 0 neutral, below 0 antagonist
[13] = NCI-H292 cells, FDA drug library screen, cholesterol-free media without statin
[14] = NCI-H292 cells, FDA drug library screen, complete media
[15] = NCI-H292 cells, FDA drug library screen, cholesterol-free media with simvastatin 0.04 μM
[16] = Complete minus Cholesterol-free, >0 enhanced anti-cancer activity, about 0 neutral, <0 antagonist
[17] = NCI-H292 cells, cholesterol-free media without statin, FDA drug library screen
[18] = NCI-H292 cells, complete media, FDA drug library screen
[19] = NCI-H292 cells, drug in cholesterol-free media with simvastatin 0.04 μM
[20] = NCI-H292 cells, drug in complete media
[21] = NCI-H292 cells, cholesterol-free media with simvastatin 0.04 μM, FDA drug library screen (TABLE 2)
[22] = NCI-H292 cells, complete media, FDA drug library screen (TABLE 2)
[23] = complete media minus cholesterol-free media + simvastatin (0.04 μM), >0 enhanced anti-cancer activity, about 0 neutral, <0 antagonist
[24] = complete media minus cholesterol-free media + simvastatin, >0 enhanced anti-cancer activity, about 0 neutral, <0 antagonist
[25] = complete vs cholesterol-free media, greater than 0 enhanced anti-cancer activity, about 0 neutral, below 0 antagonists
[26] = NCI-H292 cells, cholesterol-free media with simvastatin 0.04 μM, cell growth value in FDA drug screen
[27] = NCI-H292 cells, complete media, cell growth value in FDA drug screen
[28] = complete vs cholesterol-free media, >0 enhanced anti-cancer activity, about 0 neutral, <0 antagonist

Tegaserod (maleate)
Difference [1, 3]: −0.26 | Cholesterol-free [1, 4]: 0.9824 | Complete ([1]; NCI-H292 cells, complete media): 0.7272 | Cholesterol-free media + simvastatin (0.04 μM) ([2]; NCI-H292 cells, cholesterol-free media with simvastatin 0.04 μM, […]): 0.7216 | Complete Media ([2]; NCI-H292 cells, complete media, […]): 0.7473 | Difference [2, 5]: 0.03

C[C@H](Nc1ncnc2nc[nH]c12)c1cc2cccc(Cl)c2c(=O)n1-c1ccccc1 [Duvelisib]
Difference [1, 6]: −0.51 | Cholesterol-free [1, 7]: 1.444 | Complete [1, 8]: 0.9349 | Cholesterol-free media + simvastatin (0.04 μM) [2, 9]: 1.228 | Complete Media [2, 10]: 0.8817 | Difference [2, 11]: −0.35

C[S+](CC[C@H](N)C(=O)[O-])C[C@H]1O[C@@H](n2cnc3c(N)ncnc32)[C@H](O)[C@@H]1O.Cc1ccc(S(=O)(=O)O)cc1.O=S(=O)(O)O.O=S(=O)(O)O (some centres unmarked)
Difference [1, 12]: −0.11 | Cholesterol-free [1, 13]: 1.112 | Complete [1, 14]: 1.004 | Cholesterol-free media + simvastatin (0.04 μM) [2, 15]: 1.19 | Complete Media [2, 14]: 1.075 | Difference [2, 11]: −0.12

COc1nccnc1NS(=O)(=O)c1ccc(N)cc1 [Sulfalene]
Difference [1, 16]: −0.03 | Cholesterol-free [1, 17]: 1.1 | Complete [1, 18]: 1.067 | Cholesterol-free media + simvastatin (0.04 μM) [2, 19]: 1.16 | Complete Media [2, 20]: 0.9534 | Difference [2, 11]: −0.21

CC(C)C(=O)Nc1ccc([N+](=O)[O-])c(C(F)(F)F)c1 [Flutamide]
Difference [1, 16]: −0.27 | Cholesterol-free [1, 4]: 1.049 | Complete ([1]; NCI-H292 cells, complete media): 0.7826 | Cholesterol-free media + simvastatin (0.04 μM) [2, 21]: 0.8786 | Complete Media [2, 22]: 0.855 | Difference [2, 23]: −0.02

CN(C)C(=O)N[C@H]1CC[C@H](CCN2CCN(c3cccc(Cl)c3Cl)CC2)CC1 [Cariprazine (hydrochloride)]
Difference [1, 12]: −0.14 | Cholesterol-free [1, 13]: 1.158 | Complete [1, 14]: 1.021 | Cholesterol-free media + simvastatin (0.04 μM) [2, 15]: 1.127 | Complete Media [2, 14]: 1.452 | Difference [2, 24]: 0.32

CC(Oc1c(Cl)cccc1Cl)C1=NCCN1 (centres unmarked) [Lofexidine]
Difference [1, 12]: −0.14 | Cholesterol-free [1, 13]: 0.8805 | Complete [1, 14]: 0.7367 | Cholesterol-free media + simvastatin (0.04 μM) [2, 9]: 1.108 | Complete Media [2, 10]: 0.8401 | Difference [2, 11]: −0.27

CC(C)c1ccc2oc3nc(N)c(C(=O)O)cc3c(=O)c2c1 [Amlexanox]
Cholesterol-free [1, 4]: 1.264 | Complete ([1]; NCI-H292 cells, complete media): 0.8551 | Difference [1, 25]: −0.41 | Cholesterol-free media + simvastatin (0.04 μM) [2, 15]: 0.7766 | Complete Media [2, 14]: 1.161 | Difference [2, 24]: 0.38

CN1CCC(=C2c3ccccc3Sc3ccccc32)CC1 [Pimethixene maleate]
Cholesterol-free [1, 4]: 1.492 | Complete ([1]; NCI-H292 cells, complete media): 1.142 | Difference [1, 25]: −0.35 | Cholesterol-free media + simvastatin (0.04 μM) [2, 19]: 1.097 | Complete Media [2, 20]: 0.9153 | Difference [2, 11]: −0.18

NC(=O)c1nc(F)c[nH]c1=O [Favipiravir]
Difference [1, 16]: −0.06 | Cholesterol-free [1, 17]: 1.059 | Complete [1, 18]: 0.9966 | Cholesterol-free media + simvastatin (0.04 μM) [2, 19]: 1.347 | Complete Media [2, 20]: 1.105 | Difference [2, 11]: −0.24

CN1CC(=O)N2[C@H](c3ccc4c(c3)OCO4)c3[nH]c4ccccc4c3C[C@@H]2C1=O [Tadalafil]
Cholesterol-free [1, 4]: 1.298 | Complete ([1]; NCI-H292 cells, complete media): 0.971 | Difference [1, 25]: −0.33 | Cholesterol-free media + simvastatin (0.04 μM) [2, 15]: 1.05 | Complete Media [2, 14]: 0.9711 | Difference [2, 11]: −0.08

Cc1cc(S(=O)(=O)O)c2c(C)ccc(C(C)C)cc1-2 [Sodium gualenate]
Difference [1, 12]: −0.12 | Cholesterol-free [1, 13]: 0.9704 | Complete [1, 14]: 0.8542 | Cholesterol-free media + simvastatin (0.04 μM) [2, 21]: 0.8796 | Complete Media [2, 22]: 0.8094 | Difference [2, 23]: −0.07

Nc1ncn([C@H]2C[C@H](O)[C@@H](CO)O2)c(=O)n1 [Decitabine]
Difference [1, 16]: −0.25 | Cholesterol-free [1, 4]: 0.8074 | Complete ([1]; NCI-H292 cells, complete media): 0.559 | Cholesterol-free media + simvastatin (0.04 μM) [2, 26]: 0.7335 | Complete Media [2, 27]: 0.7733 | Difference [2, 24]: 0.04

C[C@@H]1CCN(C(=O)CC#N)C[C@@H]1N(C)c1ncnc2[nH]ccc12 [Tofacitinib]
Difference [1, 16]: −0.07 | Cholesterol-free [1, 17]: 1.303 | Complete [1, 18]: 1.238 | Cholesterol-free media + simvastatin (0.04 μM) [2, 26]: 1.188 | Complete Media [2, 27]: 1.224 | Difference [2, 24]: 0.04

Sorafenib (Tosylate)
Cholesterol-free [1, 17]: 0.8797 | Complete [1, 18]: 0.9619 | Difference ([1]; complete vs cholesterol-free media, […]): 0.08 | Cholesterol-free media + simvastatin (0.04 μM) [2, 15]: 1.142 | Difference ([2]; complete media vs cholesterol-free media + simvastatin (0.04 μM), […]): −0.09

CCCCC[C@H](O)CC[C@@H]1[C@H]2Cc3cccc(OCC(=O)O)c3C[C@H]2C[C@H]1O [Treprostinil]
Difference [1, 6]: −0.50 | Cholesterol-free [1, 7]: 1.45 | Complete [1, 8]: 0.9512 | Cholesterol-free media + simvastatin (0.04 μM) [2, 9]: 1.177 | Complete Media [2, 10]: 0.8507 | Difference [2, 11]: −0.33

CC(C)Cc1ccc(C(C)C(=O)OCc2ccccn2)cc1 (centres unmarked) [Ibuprofen piconol]
Difference [1, 12]: −0.18 | Cholesterol-free [1, 13]: 1.26 | Complete [1, 14]: 1.082 | Cholesterol-free media + simvastatin (0.04 μM) [2, 9]: 1.357 | Complete Media [2, 10]: 0.8958 | Difference [2, 11]: −0.46

Br.CCN1C[C@]2(OC(=O)c3ccccc3NC(C)=O)CC[C@H](OC)[C@@]34[C@@H]2C[C@@H]([C@@H]13)[C@@]1(O)C[C@H](OC)[C@H]2C[C@@H]4[C@]1(O)[C@H]2OC [Lappaconitine (hydrobromide)]
Difference [1, 3]: −0.05 | Cholesterol-free [1, 17]: 1.017 | Complete [1, 18]: 0.9704 | Cholesterol-free media + simvastatin (0.04 μM) [2, 15]: 1.123 | Complete Media [2, 14]: 1.322 | Difference [2, 5]: 0.20

Tamoxifen (Citrate)
Cholesterol-free [1]: 0.4962 | Complete [1]: 0.576 | Difference [1]: 0.08 | Cholesterol-free media + simvastatin (0.04 μM) [2]: 0.9205 | Complete Media [2]: 0.7671 | Difference [2]: −0.15

Cc1cnc(NC(=O)C2=C(O)c3ccccc3S(=O)(=O)N2C)s1 [Meloxicam]
Complete ([1]; NCI-H292 cells, complete media): 0.7862 | Difference [1, 25]: −0.39 | Cholesterol-free media + simvastatin (0.04 μM) [2, 26]: 1.111 | Difference [2, 24]: 0.12

CCn1cc(C(=O)O)c(=O)c2cc(F)c(N3CCNCC3)cc21 [Norfloxacin]
Cholesterol-free [1, 17]: 1.043 | Complete [1, 18]: 1.123 | Difference [1, 28]: 0.08 | Cholesterol-free media + simvastatin (0.04 μM) [2, 9]: 1.696 | Complete Media [2, 10]: 1.396 | Difference [2, 11]: −0.30

Cc1cc(-n2c(=O)[nH]c(=O)n(C)c2=O)ccc1Oc1ccc(SC(F)(F)F)cc1 [Toltrazuril]
Difference [1, 16]: −0.07 | Cholesterol-free [1, 17]: 0.9718 | Complete [1, 18]: 0.9012 | Cholesterol-free media + simvastatin (0.04 μM) [2, 15]: 0.9815 | Complete Media [2, 14]: 0.8466 | Difference [2, 11]: −0.13

N#Cc1ccc(C2CCCc3cncn32)cc1 (centres unmarked) [Fadrozole]
Cholesterol-free [1]: 0.5349 | Complete [1]: 1.016 | Difference [1]: 0.48 | Cholesterol-free media + simvastatin (0.04 μM) [2]: 1.426 | Complete Media [2]: 1.038 | Difference [2]: −0.39

CN1[C@@H]2CC[C@H]1C[C@@H](OC(=O)c1c[nH]c3ccccc13)C2 [Tropisetron]
Cholesterol-free [1, 4]: 1.242 | Complete ([1]; NCI-H292 cells, complete media): 0.8867 | Difference [1, 25]: −0.36 | Cholesterol-free media + simvastatin (0.04 μM) [2, 15]: 0.8445 | Complete Media [2, 14]: 1.139 | Difference [2, 24]: 0.29

C=C1CC[C@@H]2[C@](C)(CO)[C@H](O)CC[C@@]2(C)[C@@H]1C/C=C1/C(=O)OC[C@H]1O [Andrographolide]
Cholesterol-free [1, 17]: 0.8912 | Complete [1, 18]: 0.9868 | Difference [1, 28]: 0.10 | Cholesterol-free media + simvastatin (0.04 μM) [2, 15]: 1.859 | Difference [2, 23]: −0.94

COc1cc(Nc2c(C#N)cnc3cc(OCCCN4CCN(C)CC4)c(OC)cc23)c(Cl)cc1Cl [Bosutinib]
Difference [1, 16]: 0.05 | Cholesterol-free [1, 17]: 0.4091 | Complete [1, 18]: 0.4542 | Cholesterol-free media + simvastatin (0.04 μM) [2, 26]: 0.2873 | Complete Media [2, 27]: 0.3524 | Difference [2, 24]: 0.07

CC1(C)S[C@@H]2[C@H](NC(=O)[C@H](N)c3ccc(O)cc3)C(=O)N2[C@H]1C(=O)O [Amoxicillin (trihydrate)]
Cholesterol-free [1, 17]: 0.8623 | Complete [1, 18]: 0.9771 | Difference [1, 28]: 0.11 | Cholesterol-free media + simvastatin (0.04 μM) [2, 15]: 0.7666 | Complete Media [2, 14]: 1.02 | Difference [2, 24]: 0.25

NC(=O)N1c2ccccc2C=Cc2ccccc21 [Carbamazepine]
Cholesterol-free [1, 4]: 1.302 | Complete ([1]; NCI-H292 cells, complete media): 0.9337 | Difference [1, 25]: −0.37 | Cholesterol-free media + simvastatin (0.04 μM) [2, 19]: 1.226 | Complete Media [2, 20]: 0.9955 | Difference [2, 11]: −0.23

COc1ccc2cccc(CCNC(C)=O)c2c1 [Agomelatine]
Cholesterol-free [1, 17]: 0.6611 | Complete [1, 18]: 0.8138 | Difference [1, 28]: 0.15 | Cholesterol-free media + simvastatin (0.04 μM) [2, 9]: 1.184 | Complete Media [2, 10]: 0.8914 | Difference [2, 11]: −0.29

From US20250144067A1, “PERSONALIZED STARVATION THERAPY FOR CANCER” (Faeth Therapeutics, Inc., priority 2021, published 2025)
